Measurements taken from patent EP0531958A1, “6-Aminoquinolones, their synthesis and their use as antibacterial agents” (MEDIOLANUM FARMACEUTICI S.P.A., priority 1991, dated 1993).
≈ marks a conversion by molar mass, not a printed value. Read-outs that look alike come from different tables or passages of the source.

Legend:
Assay type in all cases: cell-based
[1] = system: Providencia stuardii CNUR 5; assay: MIC test, agar dilution with Steers multiwell inoculator; details: CNUR5, TSA dishes, 24 h at 35°C, read-out: Minimum Inhibiting Concentration
Experimental: (§1) As to the antibacterial activity, there was determined the Least (Minimum) Inhibiting Concentration (MIC), by working according to the following operative conditions.
(§2) There were used suspensions of test germs (5 gram-positive and 15 gram-negative) having a known titre, kept freezed at -80°C and diluted, at the time of use, in peptonized water up to a concentration of 1-2.10⁷ cfu/ml.
(§3) A few mg of the products, according to the invention were weighed sufficient for preparing parent solutions in DMSO + NaOH (1N) containing 2560 µg/ml (64µg/ml/dish). From the thus prepared parent solutions there were prepared 12 serial dilutions (1:2) down to the concentration of 1.25 µg/ml.
(§4) 0.5 ml of the different dilutions of each product were distributed on dishes containing 19.5 ml of agarized medium (TSA), maintained in a fluid state at the temperature of 50°C. After slight stirring, the dishes were made to solidify and dry under hood (laminar flow).
(§5) The MIC tests (Least or "Minimum" Inhibiting Concentration) were performed by using a Steers multiwell inoculator having 36 wells, each containing 200 µl of bacterial suspension.
(§6) After inoculation, the dishes were placed into a thermostat and checked after 24 h of incubation at 35°C.
(§7) The MIC is defined as the lowermost product concentration (µg/ml) inhibiting the visible growth of the microorganisms.

Escherichia coli CNUR 8 = assay: as above; details: CNUR8, TSA dishes, 24 h at 35°C, read-out: Minimum Inhibiting Concentration
Experimental: as §1, §2, §3, §4, §5, §6, §7

[2] = system: Staphylococcus aureus ATCC 6538; assay: as above; details: ATCC6538, TSA dishes, 24 h at 35°C, read-out: Minimum Inhibiting Concentration
Experimental: as §1, §2, §3, §4, §5, §6, §7

[3] = system: Pseudomonas aeruginosa CNUR 4; assay: as above; details: CNUR4, TSA dishes, 24 h at 35°C, read-out: Minimum Inhibiting Concentration
Experimental: as §1, §2, §3, §4, §5, §6, §7

[4] = system: Pseudomonas aeruginosa CNUR 2; assay: as above; details: CNUR2, TSA dishes, 24 h at 35°C, read-out: Minimum Inhibiting Concentration
Experimental: as §1, §2, §3, §4, §5, §6, §7

[5] = system: Enterobacter cloacae OMNF 1153; assay: as above; details: OMNF1153, TSA dishes, 24 h at 35°C, read-out: Minimum Inhibiting Concentration
Experimental: as §1, §2, §3, §4, §5, §6, §7

Escherichia coli 120 = assay: as above; details: TSA dishes, 24 h at 35°C, read-out: Minimum Inhibiting Concentration
Experimental: as §1, §2, §3, §4, §5, §6, §7

[6] = system: Pseudomonas aeruginosa ATCC 9027; assay: as above; details: ATCC9027, TSA dishes, 24 h at 35°C, read-out: Minimum Inhibiting Concentration
Experimental: as §1, §2, §3, §4, §5, §6, §7

[7] = system: Staphylococcus epidermidis HCF Berset C.; assay: as above; details: TSA dishes, 24 h at 35°C, read-out: Minimum Inhibiting Concentration
Experimental: as §1, §2, §3, §4, §5, §6, §7

[8] = system: Staphylococcus epidermidis CPHL A2; assay: as above; details: CPHLA2, TSA dishes, 24 h at 35°C, read-out: Minimum Inhibiting Concentration
Experimental: as §1, §2, §3, §4, §5, §6, §7

[9] = system: Acinebacter calcoloaceticus OSMPV 1130; assay: as above; details: TSA dishes, 24 h at 35°C, read-out: Minimum Inhibiting Concentration
Experimental: as §1, §2, §3, §4, §5, §6, §7

[10] = system: Klebsiella pneumoniae ATCC 10031; assay: as above; details: ATCC10031, TSA dishes, 24 h at 35°C, read-out: Minimum Inhibiting Concentration
Experimental: as §1, §2, §3, §4, §5, §6, §7

[11] = system: Staphylococcus aureus MPR 5; assay: as above; details: MPR5, TSA dishes, 24 h at 35°C, read-out: Minimum Inhibiting Concentration
Experimental: as §1, §2, §3, §4, §5, §6, §7

[12] = system: Enterobacter cloacae OMNF 1174; assay: as above; details: OMNF1174, TSA dishes, 24 h at 35°C, read-out: Minimum Inhibiting Concentration
Experimental: as §1, §2, §3, §4, §5, §6, §7

Escherichia coli CNUR 1 = assay: as above; details: CNUR1, TSA dishes, 24 h at 35°C, read-out: Minimum Inhibiting Concentration
Experimental: as §1, §2, §3, §4, §5, §6, §7

Escherichia coli ISF 432 = assay: as above; details: ISF432, TSA dishes, 24 h at 35°C, read-out: Minimum Inhibiting Concentration
Experimental: as §1, §2, §3, §4, §5, §6, §7

[13] = system: Streptococcus facealis LEP Br.; assay: as above; details: TSA dishes, 24 h at 35°C, read-out: Minimum Inhibiting Concentration
Experimental: as §1, §2, §3, §4, §5, §6, §7

Shighella enteritidis = assay: as above; details: TSA dishes, 24 h at 35°C, read-out: Minimum Inhibiting Concentration
Experimental: as §1, §2, §3, §4, §5, §6, §7

Proteus vulgaris CNUR 6 = assay: as above; details: CNUR6, TSA dishes, 24 h at 35°C, read-out: Minimum Inhibiting Concentration
Experimental: as §1, §2, §3, §4, §5, §6, §7

[14] = system: Escherichia coli ATCC 8739; assay: as above; details: ATCC8739, TSA dishes, 24 h at 35°C, read-out: Minimum Inhibiting Concentration
Experimental: as §1, §2, §3, §4, §5, §6, §7

Gram + = assay: MIC test, average over the 5 gram-positive test germs; details: 24 h
Experimental: as §1, §2, §3, §4, §5, §6, §7

Gram - = assay: MIC test, average over the 15 gram-negative test germs; details: 24 h
Experimental: as §1, §2, §3, §4, §5, §6, §7

[15] = geometrical average of the MIC over the 15 Gram - strains, read-out: Geometrical Average
[16] = mean log of the MIC over the 15 Gram - strains, read-out: Log (converted)
[17] = geometrical average of the MIC over the 5 Gram + strains, read-out: Geometrical Average

SMILES | MIC [1] | MIC (Escherichia coli CNUR 8) | MIC [2] | MIC [3] | MIC [4] | MIC [5] | MIC (Escherichia coli 120) | MIC [6] | MIC [7] | MIC [8] | MIC [9] | MIC [10] | MIC [11] | MIC [12] | MIC (Escherichia coli CNUR 1) | MIC (Escherichia coli ISF 432) | MIC [13] | MIC (Shighella enteritidis) | MIC (Proteus vulgaris CNUR 6) | MIC [14] | other results
CN1CCN(c2cc3c(cc2N)c(=O)c(C(=O)O)cn3C2CC2)CC1 [Compound 8] | 8 µg/mL (≈ 23.4 µM) | 0.12 µg/mL (≈ 0.35 µM) | 2 µg/mL (≈ 5.84 µM) | 64 µg/mL (≈ 187 µM) | 16 µg/mL (≈ 46.7 µM) | 0.25 µg/mL (≈ 0.73 µM) | 0.12 µg/mL (≈ 0.35 µM) | 4 µg/mL (≈ 11.7 µM) | 4 µg/mL (≈ 11.7 µM) | 2 µg/mL (≈ 5.84 µM) | 4 µg/mL (≈ 11.7 µM) | 0.03 µg/mL (≈ 0.0876 µM) | 2 µg/mL (≈ 5.84 µM) | 0.25 µg/mL (≈ 0.73 µM) | 0.25 µg/mL (≈ 0.73 µM) | 0.03 µg/mL (≈ 0.0876 µM) | 32 µg/mL (≈ 93.5 µM) | 0.25 µg/mL (≈ 0.73 µM) | 64 µg/mL (≈ 187 µM) | 0.25 µg/mL (≈ 0.73 µM) | MIC (Gram +; read-out: Log (converted)): 4 µg/mL (≈ 11.7 µM); MIC (Gram -; [15]): 0.861 µg/mL (≈ 2.51 µM); MIC (Gram -; [16]): 0.861 µg/mL (≈ 2.51 µM)
CN1CCN(c2cc3c(cc2N)c(=O)c(C(=O)O)cn3-c2ccc(F)cc2)CC1 [Compound 50] | 4 µg/mL (≈ 10.1 µM) | 0.5 µg/mL (≈ 1.26 µM) | 8 µg/mL (≈ 20.2 µM) | 128 µg/mL (≈ 323 µM) | 32 µg/mL (≈ 80.7 µM) | 4 µg/mL (≈ 10.1 µM) | 0.5 µg/mL (≈ 1.26 µM) | 8 µg/mL (≈ 20.2 µM) | 8 µg/mL (≈ 20.2 µM) | 8 µg/mL (≈ 20.2 µM) | 16 µg/mL (≈ 40.4 µM) | 0.12 µg/mL (≈ 0.303 µM) | 4 µg/mL (≈ 10.1 µM) | 4 µg/mL (≈ 10.1 µM) | 4 µg/mL (≈ 10.1 µM) | 0.25 µg/mL (≈ 0.631 µM) | 64 µg/mL (≈ 161 µM) | 4 µg/mL (≈ 10.1 µM) | 128 µg/mL (≈ 323 µM) | 0.25 µg/mL (≈ 0.631 µM) | MIC (Gram +; [17]): 10.6 µg/mL; MIC (Gram +; read-out: Log (converted)): 10.5 µg/mL (≈ 26.6 µM); MIC (Gram -; [15]): 3.47 µg/mL (≈ 8.76 µM); MIC (Gram -; [16]): 3.48 µg/mL (≈ 8.77 µM)
CC(C)(C)n1cc(C(=O)O)c(=O)c2cc(N)c(N3CCN(c4ccccn4)CC3)cc21 [Compound 48, 6-amino-1-terbutyl-7-[4-(2-pyridyl)-1-piperazinyl]-1,4-dihydro-4-oxo-quinoline carboxylic acid] | 128 µg/mL (≈ 304 µM) | 16 µg/mL (≈ 38 µM) | 1 µg/mL (≈ 2.37 µM) | 128 µg/mL (≈ 304 µM) | 128 µg/mL (≈ 304 µM) | 128 µg/mL (≈ 304 µM) | 16 µg/mL (≈ 38 µM) | 128 µg/mL (≈ 304 µM) | 2 µg/mL (≈ 4.74 µM) | 1 µg/mL (≈ 2.37 µM) | 1 µg/mL (≈ 2.37 µM) | 0.25 µg/mL (≈ 0.593 µM) | 1 µg/mL (≈ 2.37 µM) | 64 µg/mL (≈ 152 µM) | 64 µg/mL (≈ 152 µM) | 0.5 µg/mL (≈ 1.19 µM) | 16 µg/mL (≈ 38 µM) | 64 µg/mL (≈ 152 µM) | 128 µg/mL (≈ 304 µM) | 0.5 µg/mL (≈ 1.19 µM) | MIC (Gram +; [17]): 2 µg/mL; MIC (Gram +; read-out: Log (converted)): 2 µg/mL (≈ 4.74 µM); MIC (Gram -; [15]): 19.2 µg/mL (≈ 45.7 µM); MIC (Gram -; [16]): 19.2 µg/mL (≈ 45.6 µM)
CN1CCN(c2c(N)c(N)c3c(=O)c(C(=O)O)cn(C4CC4)c3c2F)CC1 [Compound 28] | 2 µg/mL (≈ 5.33 µM) | 0.12 µg/mL (≈ 0.32 µM) | 2 µg/mL (≈ 5.33 µM) | 64 µg/mL (≈ 170 µM) | 8 µg/mL (≈ 21.3 µM) | 0.25 µg/mL (≈ 0.666 µM) | 0.12 µg/mL (≈ 0.32 µM) | 4 µg/mL (≈ 10.7 µM) | 4 µg/mL (≈ 10.7 µM) | 4 µg/mL (≈ 10.7 µM) | 2 µg/mL (≈ 5.33 µM) | 0.03 µg/mL (≈ 0.0799 µM) | 2 µg/mL (≈ 5.33 µM) | 0.12 µg/mL (≈ 0.32 µM) | 0.25 µg/mL (≈ 0.666 µM) | 0.03 µg/mL (≈ 0.0799 µM) | 4 µg/mL (≈ 10.7 µM) | 0.25 µg/mL (≈ 0.666 µM) | 64 µg/mL (≈ 170 µM) | 0.03 µg/mL (≈ 0.0799 µM) | MIC (Gram +; [17]): 3.03 µg/mL; MIC (Gram +; read-out: Log (converted)): 3.03 µg/mL (≈ 8.08 µM); MIC (Gram -; [15]): 0.592 µg/mL (≈ 1.58 µM); MIC (Gram -; [16]): 0.592 µg/mL (≈ 1.58 µM)
